Measured values as given in patent EP2809669B1, “FUSED PYRROLEDICARBOXAMIDES AND THEIR USE AS PHARMACEUTICALS” (SANOFI, priority 2012, dated 2013).
Read-outs that look alike come from different tables or passages of the source.

Columns and labels:
[1] = tested on: atrium of the anesthetized pig; assay: Investigation of the refractory period and the left-atrial vulnerability in the anesthetized pig; type: in vivo; settings: Sus scrofa, iv; for inhibition in vivo at 0.3 mg/kg / change in vivo at 0.3 mg/kg: 0.3 mg/kg i.v.
Protocol: Investigation of the refractory period and the left-atrial vulnerability in the pig
The compounds were tested for prolongation of the refractory period and antiarrhythmic activity on the atrium of the anesthetized pig as described in Knobloch K. et al., Naunyn-Schmiedeberg's Arch. Pharmacol. 2002, 366, 482-487. Here the anti-arrhythmic action relates to the inhibition of the occurrence of episodes of atrial arrhythmias which are induced by a prematurely placed extra-stimulus (S2) in the left atrium (= left-atrial vulnerability). The prolongation of the refractory period (refractoriness) is expressed as the increase in percent of the value of the refractory period 15 min after the end of administration of the test compound vs. the basal value before administration. Mean values of the prolongation of the refractory period are shown from three rates (150/min, 200/min and 250/min). The values for the inhibition of left atrial vulnerability (inhibition of episodes of arrhythmias) in percent refer to three measurements (three time points) before administration of the test compound vs. at least three measurements during the first hour after administration.
In Table 16, the action of compounds of the formula I from the examples above on the refractory period of the left atrium and their antiarrhythmic activity in the anesthetized pig after intravenous (i.v.) administration of the described dose is shown.

hERG channel = target: T1, hERG channel (Homo sapiens, UniProt Q12809); assay: Determination of the effect on the hERG channel in CHO cells (whole-cell patch clamp); type: cell-based; settings: CHO cells stably expressing hERG, room temperature, read-out: IC50 value [µM] for hERG inhibition
T1 construct: expressed in transfected cells
T1 sequence (Q12809 whole entry): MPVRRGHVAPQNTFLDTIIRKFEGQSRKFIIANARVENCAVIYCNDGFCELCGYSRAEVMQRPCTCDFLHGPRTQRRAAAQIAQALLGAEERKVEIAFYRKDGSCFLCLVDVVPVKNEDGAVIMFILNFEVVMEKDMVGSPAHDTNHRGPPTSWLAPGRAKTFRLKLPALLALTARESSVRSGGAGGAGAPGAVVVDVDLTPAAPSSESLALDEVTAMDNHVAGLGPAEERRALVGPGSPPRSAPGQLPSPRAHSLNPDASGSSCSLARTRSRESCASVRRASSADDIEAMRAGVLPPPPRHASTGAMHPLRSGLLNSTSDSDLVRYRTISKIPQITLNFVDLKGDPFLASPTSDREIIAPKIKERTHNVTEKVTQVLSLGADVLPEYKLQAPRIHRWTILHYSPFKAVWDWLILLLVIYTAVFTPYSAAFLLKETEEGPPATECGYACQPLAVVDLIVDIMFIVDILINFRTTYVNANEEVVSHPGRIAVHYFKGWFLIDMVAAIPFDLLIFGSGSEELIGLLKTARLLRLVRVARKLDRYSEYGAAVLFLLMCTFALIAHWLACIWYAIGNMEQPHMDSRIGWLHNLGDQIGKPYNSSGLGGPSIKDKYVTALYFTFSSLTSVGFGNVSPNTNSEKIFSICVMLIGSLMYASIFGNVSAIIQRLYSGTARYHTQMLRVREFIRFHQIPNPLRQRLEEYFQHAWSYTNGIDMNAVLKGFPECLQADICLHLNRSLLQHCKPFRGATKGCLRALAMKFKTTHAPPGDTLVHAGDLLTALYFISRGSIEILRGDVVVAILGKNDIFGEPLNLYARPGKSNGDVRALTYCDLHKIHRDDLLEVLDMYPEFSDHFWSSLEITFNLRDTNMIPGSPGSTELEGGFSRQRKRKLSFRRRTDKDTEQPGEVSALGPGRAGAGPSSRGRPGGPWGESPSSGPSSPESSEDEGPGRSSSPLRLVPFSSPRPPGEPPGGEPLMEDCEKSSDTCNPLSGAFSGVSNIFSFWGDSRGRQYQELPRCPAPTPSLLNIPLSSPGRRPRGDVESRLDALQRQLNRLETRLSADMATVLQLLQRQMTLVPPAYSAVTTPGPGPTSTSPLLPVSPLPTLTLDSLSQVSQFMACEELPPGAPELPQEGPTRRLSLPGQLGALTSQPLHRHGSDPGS
Protocol: Determination of the effect on the hERG channel in CHO cells
An inhibition of the hERG (human Ether-a-go-go-Related Gene) potassium channel is unwanted because it can lead to dangerous arrhythmias. The effect of compounds of the formula I on the cloned human cardiac hERG channel was evaluated in an in vitro model using a whole-cell patch-clamping technique. CHO (Chinese hamster ovary) cells stably expressing hERG, the potassium channel underlying IKr currents in human hearts, were grown in HAM's F-12 media supplemented with 10 % fetal bovine serum, 1 x penicillin/streptomycin and 500 µg/ml G418 (Invitrogen, Carlsbad, CA, USA) in an atmosphere of 95 % air and 5 % carbon dioxide. Cells used for patch-clamping were seeded on glass or plastic coverslips 12 to 36 hours before use. hERG channel currents were recorded at room temperature using the whole-cell configuration of the patch clamp technique with an Axopatch 200B amplifier (Axon Instruments, Foster City, CA, USA). Briefly, electrodes (3 to 6 MΩ resistance) were fashioned from TW150F glass capillary tubes (World Precision Instruments, Sarasota, FL, USA) and filled with pipette solution (containing 120 mM potassium aspartate, 20 mM potassium chloride, 4 mM adenosine triphosphate disodium salt, 5 mM HEPES, 1 mM magnesium chloride; pH adjusted to 7.2 with potassium hydroxide). hERG currents were initiated by a positive voltage pulse (20 mV) followed by a negative pulse (-40 mV) and were recorded for off-line analyses. Once hERG current from a cell perfused with external solution (containing 130 mM sodium chloride, 5 mM potassium chloride, 2.8 mM sodium acetate, 1 mM magnesium chloride, 10 mM HEPES, 10 mM glucose, 1 mM calcium chloride; pH adjusted to 7.4 with sodium hydroxide) without the test compound, i.e. control solution, was stabilized, the cell was perfused with external solution containing the test compound at specific concentrations. For each concentration from each cell, peak amplitude of the steady-state hERG tail current at -40 mV was measured in picoAmpere (pA). The peak amplitude in pA for each concentration (up to a maximum concentration of 10 µM) was compared with that for the control solution from the same cell and expressed as percent value of the control. From the percent values at multiple concentrations, IC50 values for inhibition of hERG can be determined.

upper airway = assay: Effect on upper airway collapsibility in the anesthetized pig (negative pressure challenge); type: in vivo; settings: negative pressure -150 mbar
Source text: Effect on upper airway collapsibility in the pig Pharmacological efficacy against obstructive apneas was investigated in chloralose-urethane anesthetized pigs (weight range 20 to 35 kg), a large-animal model for obstructive apneas. Negative pressure generated by a negative pressure device was applied with a cannula to the upper part of the trachea for at least three breaths so that the upper airway was exposed to the negative pressure generated by the device. This caused an upper airway collapse as in an obstructive apnea in control animals treated with vehicle only, and in animals of the treatment group before the test compound was administered (baseline situation). Different levels of negative pressure were used to cause a collapse of the upper airway (-50 mbar, -100 mbar and -150 mbar). These negative pressure challenges were repeated several times before vehicle or test compound was given, and at regular intervals after administration of vehicle or test compound. Whether the upper airway was collapsed or open, was judged by airflow measurement and by the tracheal pressure in the cannula inserted into the upper trachea. In case the upper airway was collapsed by the negative pressure, airflow to the negative pressure device was close to zero. As a second parameter tracheal pressure approached the negative pressure generated by the device during upper airway collapse. Test compounds were administered by intravenous bolus injection. After administration of an effective test compound the upper airway was open during the negative pressure challenges, i.e. not collapsed, as indicated by airflow to the negative pressure device and the fact that tracheal pressure now approached atmospheric pressure in the inspiratory phase where upper airway muscles are activated. In vehicle-treated controls upper airway collapse occurred at every negative pressure challenge at -50 mbar, -100 mbar and -150 mbar. In Table 17, the time after administration of compounds of the formula I from the examples above is shown during which no upper airway collapse occurred (time of inhibition of collapsibility) at a negative pressure of -150 mbar. […]

[2] = infusion over 1 h, first hour after administration vs. before
[3] = 0.25 h, infusion over 1 h, 15 min after end of administration vs. basal value, mean of three rates (150/min, 200/min, 250/min), read-out: % Prolongation of left atrial refractory period
[4] = 0.25 h, bolus injection, 15 min after end of administration vs. basal value, mean of three rates (150/min, 200/min, 250/min), read-out: % Prolongation of left atrial refractory period
[5] = 1 h, bolus injection, first hour after administration vs. before
[6] = 100 µg/kg intravenous bolus injection

## CC[C@@H](NC(=O)c1cc(C(=O)N2CCC[C@@H]2C)n2c1COCC2)c1ccccc1 [16a, 6-((S)-2-Methyl-pyrrolidine-1-carbonyl)-3,4-dihydro-1H-pyrrolo[2,1-c][1,4]oxazine-8-carboxylic acid ((R)-1-phenyl-propyl)-amide]
[1]; [2]
  inhibition in vivo at 0.3 mg/kg: 91%
[1]; [3]
  change in vivo at 0.3 mg/kg: 40%
hERG channel
  IC50: > 10 µM

## CC[C@@H](NC(=O)c1cc(C(=O)N2CCC[C@@H]2C)n2c1COCC2)c1cnc(OC)c(Cl)c1 [16b, 6-((S)-2-Methyl-pyrrolidine-1-carbonyl)-3,4-dihydro-1H-pyrrolo[2,1-c][1,4]oxazine-8-carboxylic acid [(R)-1-(5-chloro-6-methoxy-pyridin-3-yl)-propyl]-amide]
[1]; [4]
  change in vivo at 0.3 mg/kg: 21%
[1]; [5]
  inhibition in vivo at 0.3 mg/kg: 91%
hERG channel
  IC50: > 10 µM

## CC[C@@H](NC(=O)c1cc(C(=O)N2CCC[C@@H]2C)n2c1COCC2)c1ccc(C(F)(F)F)c(Cl)c1 [16c, 6-((S)-2-Methyl-pyrrolidine-1-carbonyl)-3,4-dihydro-1H-pyrrolo[2,1-c][1,4]oxazine-8-carboxylic acid [(R)-1-(3-chloro-4-trifluoromethyl-phenyl)-propyl]-amide]
[1]; 0.25 h, 0.03 mg/kg i.v., bolus injection, 15 min after end of administration vs. basal value, mean of three rates (150/min, 200/min, 250/min), read-out: % Prolongation of left atrial refractory period
  change in vivo at 0.03 mg/kg: 12%
[1]; 1 h, 0.03 mg/kg i.v., bolus injection, first hour after administration vs. before
  inhibition in vivo at 0.03 mg/kg: 65%
hERG channel
  IC50: > 10 µM

## CC[C@@H](NC(=O)c1cc(C(=O)N2CCC[C@@H]2C)n2c1COCC2)c1ccc(Cl)c(Cl)c1 [16ci, 6-((S)-2-Methyl-pyrrolidine-1-carbonyl)-3,4-dihydro-1H-pyrrolo[2,1-c][1,4]oxazine-8-carboxylic acid [(R)-1-(3,4-dichloro-phenyl)-propyl]-amide]
hERG channel
  IC50: ~10 µM

## CC[C@@H](NC(=O)c1cc(C(=O)N2CCC[C@@H]2C)n2c1COCC2)c1ccc(C#N)c(Cl)c1 [16d, 6-((S)-2-Methyl-pyrrolidine-1-carbonyl)-3,4-dihydro-1H-pyrrolo[2,1-c][1,4]oxazine-8-carboxylic acid [(R)-1-(3-chloro-4-cyano-phenyl)-propyl]-amide]
[1]; [4]
  change in vivo at 0.3 mg/kg: 24%
[1]; [5]
  inhibition in vivo at 0.3 mg/kg: 100%
hERG channel
  IC50: > 10 µM

## CC[C@@H](NC(=O)c1cc(C(=O)N2CCC[C@@H]2C)n2c1COCC2)c1ccc(C(F)(F)F)nc1 [16e, 6-((S)-2-methyl-pyrrolidine-1-carbonyl)-3,4-dihydro-1H-pyrrolo[2,1-c][1,4]oxazine-8-carboxylic acid [(R)-1-(6-trifluoromethyl-pyridin-3-yl)-propyl]-amide]
[1]; [2]
  inhibition in vivo at 0.3 mg/kg: 84%
[1]; [3]
  change in vivo at 0.3 mg/kg: 38%
hERG channel
  IC50: > 10 µM

## CC[C@@H](NC(=O)c1cc(C(=O)N[C@H](C)c2ccc(F)cc2)n2c1COCC2)c1ccc(C(F)(F)F)cc1 [16eb, 3,4-Dihydro-1H-pyrrolo[2,1-c][1,4]oxazine-6,8-dicarboxylic acid 6-{[(R)-1-(4-fluoro-phenyl)-ethyl]-amide} 8-{[(R)-1-(4-trifluoromethyl-phenyl)-propyl]-amide}]
hERG channel
  IC50: > 1 µM

## CC[C@@H](NC(=O)c1cc(C(=O)N2CCC[C@@H]2C)n2c1COCC2)c1ccc(C(F)(F)F)cc1 [16f, 6-((S)-2-Methyl-pyrrolidine-1-carbonyl)-3,4-dihydro-1H-pyrrolo[2,1-c][1,4]oxazine-8-carboxylic acid [(R)-1-(4-trifluoromethyl-phenyl)-propyl]-amide]
[1]; 0.25 h, 1.0 mg/kg i.v., bolus injection, 15 min after end of administration vs. basal value, mean of three rates (150/min, 200/min, 250/min), read-out: % Prolongation of left atrial refractory period
  change in vivo at 1 mg/kg: 19%
[1]; 1 h, 1.0 mg/kg i.v., bolus injection, first hour after administration vs. before
  inhibition in vivo at 1 mg/kg: 73%

## CC[C@@H](NC(=O)c1cc(C(=O)N[C@H](C)c2ccc(F)cc2)n2c1COCC2)c1ccc(C(F)(F)F)nc1 [16g, 3,4-Dihydro-1H-pyrrolo[2,1-c][1,4]oxazine-6,8-dicarboxylic acid 6-{[(R)-1-(4-fluorophenyl)-ethyl]-amide}8-{[(R)-1-(6-trifluoromethyl-pyridin-3-yl)-propyl]-amide}]
hERG channel
  IC50: > 10 µM

## CC[C@@H](NC(=O)c1cc(C(=O)N[C@H](CC)c2ccccc2)n2c1COCC2)c1ccccc1 [16i, 3,4-Dihydro-1H-pyrrolo[2,1-c][1,4]oxazine-6,8-dicarboxylic acid bis-[((R)-1-phenylpropyl)-amide]]
Upper airway; 10 µg/kg intravenous bolus injection
  Time of inhibition of collapsibility (at -150 mbar): for 90 min
hERG channel
  IC50: > 10 µM

## CC[C@@H](NC(=O)c1cc(C(=O)N[C@H](CC)c2ccc(OC)nc2)n2c1COCC2)c1ccccc1 [16j, 3,4-Dihydro-1H-pyrrolo[2,1-c][1,4]oxazine-6,8-dicarboxylic acid 6-{[(R)-1-(6-methoxy-pyridin-3-yl)-propyl]-amide}8-[((R)-1-phenyl-propyl)-amide]]
Upper airway; [6]
  Time of inhibition of collapsibility (at -150 mbar): for 120 min
hERG channel
  IC50: > 10 µM

## CCOC(=O)CNC(=O)c1cc(C(=O)N[C@H](CC)c2ccccc2)c2n1CCOC2 [16k, {[8-((R)-1-Phenyl-propylcarbamoyl)-3,4-dihydro-1H-pyrrolo[2,1-c][1,4]oxazine-6-carbonyl]-amino}-acetic acid ethyl ester]
Upper airway; [6]
  Time of inhibition of collapsibility (at -150 mbar): for >240 min
hERG channel
  IC50: > 10 µM

## CCOC(=O)[C@H](C)N(C)C(=O)c1cc(C(=O)N[C@H](CC)c2ccccc2)c2n1CCOC2 [16l, (S)-2-{Methyl-[8-((R)-1-phenyl-propylcarbamoyl)-3,4-dihydro-1H-pyrrolo[2,1-c][1,4]oxazine-6-carbonyl]-amino}-propionic acid ethyl ester]
Upper airway; [6]
  Time of inhibition of collapsibility (at -150 mbar): for >120 min
hERG channel
  IC50: > 10 µM

## CC[C@@H](NC(=O)c1cc(C(=O)N2CCC[C@@H]2C(F)(F)F)n2c1COCC2)c1ccc(C(F)(F)F)nc1 [16o, 6-((R)-2-Trifluoromethyl-pyrrolidine-1-carbonyl)-3,4-dihydro-1H-pyrrolo[2,1-c][1,4]oxazine-8-carboxylic acid [(R)-1-(6-trifluoromethyl-pyridin-3-yl)-propyl]-amide]
[1]; [4]
  change in vivo at 0.3 mg/kg: 45%
[1]; [5]
  inhibition in vivo at 0.3 mg/kg: 71%
